Reference: patent US20080214533A1, “Cyclic Iminocarbamates And Their Use” (BAYER HEALTHCARE AG, priority 2004, published 2008)

Target: human factor Xa (FXa) (Homo sapiens, UniProt P00742)
Assay: Determination of the factor Xa inhibition (chromogenic substrate)
Type: biochemical
Settings: chromogenic substrate Pefachrome FXa, 25° C., extinction at 405 nm
Procedure: The enzymatic activity of human factor Xa (FXa) is measured using the conversion of a chromogenic substrate specific for FXa. Factor Xa cleaves p-nitroaniline from the chromogenic substrate. The determinations are carried out in microtitre plates as follows:
The test substances, in various concentrations, are dissolved in DMSO and incubated for 10 minutes at 25° C. with human FXa ([…] dissolved in 50 mmol/l of Tris buffer [C,C,C-tris(hydroxymethyl)aminomethane], 150 mmol/l of NaCl, 0.1% BSA [bovine serum albumin], pH=8.3). Pure DMSO is used as control. The chromogenic substrate (150 μmol/l Pefachrome® FXa from Pentapharm) is then added. After an incubation time of 20 minutes at 25° C., the extinction at 405 nm is determined.

human factor Xa (FXa), sequence (P00742 235-488 limits assumed): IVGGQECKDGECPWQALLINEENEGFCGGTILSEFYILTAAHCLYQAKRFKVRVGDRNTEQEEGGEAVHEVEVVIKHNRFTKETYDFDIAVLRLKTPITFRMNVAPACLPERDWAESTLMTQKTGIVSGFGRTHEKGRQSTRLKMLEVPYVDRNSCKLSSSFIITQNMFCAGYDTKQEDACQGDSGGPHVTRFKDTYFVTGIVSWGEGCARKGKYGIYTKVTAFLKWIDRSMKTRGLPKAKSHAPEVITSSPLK
human factor Xa (FXa), sequence (P00742 41-179 partner limits assumed): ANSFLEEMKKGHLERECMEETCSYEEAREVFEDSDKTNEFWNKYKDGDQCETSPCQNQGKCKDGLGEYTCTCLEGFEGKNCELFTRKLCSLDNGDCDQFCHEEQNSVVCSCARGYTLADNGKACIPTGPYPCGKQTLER

IC50	SMILES
0.64 nM	N=C1OCCN1c1ccc(NC(=O)c2nccnc2C(=O)Nc2ccc(Cl)cn2)cc1 [Example 1, N-(5-Chloropyridin-2-yl)-N′-[4-(2-imino-1,3-oxazolidin-3-yl)phenyl]pyrazine-2,3-dicarboxamide methanesulphonate]
4.4 nM	Cc1nc(C(=O)Nc2ccc(N3CCOC3=N)cc2)c(C(=O)Nc2ccc(Cl)cn2)s1 [Example 13, N^5-(5-Chloropyridin-2-yl)-N^4-[4-(2-imino-1,3-oxazolidin-3-yl)phenyl]-2-methyl-1,3-thiazole-4,5-dicarboxamide methanesulphonate]
2.6 nM	N=C1OCCCN1c1ccc(NC(=O)c2nccnc2C(=O)Nc2ccc(Cl)cn2)cc1 [Example 5, N-(5-Chloropyridin-2-yl)-N′-[4-(2-imino-1,3-oxazinan-3-yl)phenyl]pyrazine-2,3-dicarboxamide methanesulphonate]
0.3 nM	Cc1nc(C(=O)Nc2ccc(Cl)cn2)c(C(=O)Nc2ccc(N3CCOC3=N)cc2)s1 [Example 12, N^4-(5-Chloropyridin-2-yl)-N^5-[4-(2-imino-1,3-oxazolidin-3-yl)phenyl]-2-methyl-1,3-thiazole-4,5-dicarboxamide methanesulphonate]
